Measurements from PubChem BioAssay AID1918993 (Molecular Pharmacology Branch, DTP, NCI, 2023).

Tested on: 233499-124-R-J3-PDC complex spheroid growth
Test: Anticancer human tumor 233499-124-R-J3-PDC patient-derived colon adenocarcinoma cell line growth inhibition [AhR]
Details: for IC50: curve of first compound; for viability, T/C: stronger effect = lower value
Excerpt: Multicellular complex tumor spheroid response to aryl hydrocarbon receptor antagonists in combination with a variety of drugs and investigational agents in selected tumor cell lines
The current study was undertaken to assess response to aryl hydrocarbon receptor antagonists in combination with standard-of-care drugs and investigational agents in solid tumor complex spheroid models. Complex spheroids include a stromal component modeled by human endothelial cells (HUVEC) and fibroblasts modeled by human mesenchymal stem cells (MSCs). The concentration ranges selected for each drug and investigational agent were based upon clinically achievable concentrations if the clinical Cmax of the agent was known.
Compounds. The drugs and investigational agents: BAY 2416964 (NSC825713), GNF351 (NSC835774), CH-223191 (NSC835775), CPI-455 (NSC825282), aza-TdCyd (NSC777586), decitabine (NSC127716), belinostat (NSC758774), entinostat (NSC756642), pevonedistat (NSC761192), tazemetostat (NSC777109), talazoparib (NSC765396), olaparib (NSC753686), selinexor (NSC780203), nedisertib (M3814, NSC802822), bortezomib (NSC756655), venetoclax (NSC766270), doxorubicin (NSC123127), elimusertib (BAY189344, NSC800525), ceralasertib (AZD6738, NSC777638), TAK-243 (NSC785004), alisertib (NSC759677), etoposide (NSC141540), topotecan (NSC609699), eribulin (NSC707389), gemcitabine (NSC613327), carboplatin (NSC241240), cisplatin (NSC119875), and SN-38 (NSC673596) were obtained from the National Cancer Institute (NCI) Developmental Therapeutics Program Chemical Repository (32). The FDA-approved anticancer drug set is available from the Developmental Therapeutics Program at https://dtp.cancer.gov/organization/dscb/obtaining/available plates.htm. […] The stock solutions were prepared in dimethyl sulfoxide (DMSO, Sigma-Aldrich, St. Louis, MO, cat. D2650), except for the platinum compounds which were prepared in saline (Quality Biological, Gaithersburg, MD, cat. 114-055-101), at 800-fold the tested concentration and stored at -70 degrees C prior to their use. All drugs and investigational agents were tested over a range starting from a high concentration at or near the clinical Cmax and decreasing in half-log increments. If the clinical Cmax for an agent had not been determined, the highest concentration tested was 10 microM (Table 1).
Cell Culture. All cells were maintained in an incubator at 37 degrees C and 5% CO2 with 95% humidity. The PDC lines were cultured according to standard operating procedures established by the NCI PDMR (https://pdmr.cancer.gov). Briefly, all PDCs were thawed and cultured in Matrigel-coated flasks prepared with a working solution of 1X Ham's F-12 nutrient mix, without supplementation (Invitrogen, Waltham, MA, cat. 11765054), 100 U/mL penicillin-streptomycin (Invitrogen, cat. 15140122), and 2.5% Matrigel (Corning Inc., Corning, NY, cat. 354248) for the first three passages. All PDCs were cultured in complete DMEM/F-12 media containing advanced DMEM/F-12 (Invitrogen, cat. 12634028), 4.9% defined fetal bovine serum, heat inactivated (HyClone Laboratories Inc., Logan, UT, cat. SH30070.03HI), 389 ng/mL hydrocortisone (Sigma-Aldrich, cat. H4001), 9.7 ng/mL human EGF recombinant protein (Invitrogen, cat. PHG0313), 23.4 microg/mL adenine (Sigma-Aldrich, cat. A2786), 97.3 U/mL penicillin-streptomycin (Invitrogen, cat. 15140122), 1.9 mM L-glutamine (Invitrogen, cat. 25030081), and 9.7 microM Y-27632 dihydrochloride (Tocris Bioscience, Bristol, United Kingdom, cat. 1254). The PDCs were cultured in complete DMEM/F12 media without 10 microM Y-27632 dihydrochloride for at least two passages prior to the screen. The established cell lines NCI-H1341 and […] were cultured in DMEM/F-12, HEPES (Invitrogen, cat. 11330032), 5% defined fetal bovine serum (HyClone Laboratories Inc., cat. SH30070.03), ITS premix universal culture supplement [insulin (5 microg/mL), transferrin (5 microg/mL), and selenious acid (5 ng/mL)] […]

[1] = second compound 0.1 µM, first compound 0.0316 µM
[2] = second compound 0.1 µM, first compound 0.1 µM
[3] = second compound 0.316 µM, first compound 0.0316 µM
[4] = second compound 0.316 µM, first compound 0.1 µM
[5] = second compound 1 µM, first compound 0.0316 µM
[6] = second compound 1 µM, first compound 0.1 µM
[7] = second compound 3.16 µM, first compound 0.0316 µM
[8] = second compound 3.16 µM, first compound 0.1 µM
[9] = second compound 10 µM, first compound 0.0316 µM
[10] = second compound 10 µM, first compound 0.1 µM
[11] = second compound 0.1 µM, first compound 0.316 µM
[12] = second compound 0.1 µM, first compound 1 µM
[13] = second compound 0.1 µM, first compound 3.16 µM
[14] = second compound 0.1 µM, first compound 10 µM
[15] = second compound 0.316 µM, first compound 0.316 µM
[16] = second compound 0.316 µM, first compound 1 µM
[17] = second compound 0.316 µM, first compound 3.16 µM
[18] = second compound 0.316 µM, first compound 10 µM
[19] = second compound 1 µM, first compound 0.316 µM
[20] = second compound 1 µM, first compound 1 µM
[21] = second compound 1 µM, first compound 3.16 µM
[22] = second compound 1 µM, first compound 10 µM
[23] = second compound 3.16 µM, first compound 0.316 µM
[24] = second compound 3.16 µM, first compound 1 µM
[25] = second compound 3.16 µM, first compound 3.16 µM
[26] = second compound 3.16 µM, first compound 10 µM
[27] = second compound 10 µM, first compound 0.316 µM
[28] = second compound 10 µM, first compound 1 µM
[29] = second compound 10 µM, first compound 3.16 µM
[30] = second compound 10 µM, first compound 10 µM
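Also: spheroids exposed to agents for seven days before reading.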

SMILES	IC50 (second compound 0.1 µM) [nM]	IC50 (second compound 0.316 µM) [nM]	IC50 (second compound 1 µM) [nM]	IC50 (second compound 3.16 µM) [nM]	IC50 (second compound 10 µM) [nM]	viability, T/C [1] [%]	viability, T/C [2] [%]	viability, T/C [3] [%]	viability, T/C [4] [%]	viability, T/C [5] [%]	viability, T/C [6] [%]	viability, T/C [7] [%]	viability, T/C [8] [%]	viability, T/C [9] [%]	viability, T/C [10] [%]	viability, T/C [11] [%]	viability, T/C [12] [%]	viability, T/C [13] [%]	viability, T/C [14] [%]	viability, T/C [15] [%]	also measured
CC[C@@]1(O)C(=O)OCc2c1cc1n(c2=O)Cc2cc3c(CN(C)C)c(O)ccc3nc2-1 + CC(CO)NC(=O)c1cc(-c2ccc(Cl)cc2)nn(-c2cnn(C)c2)c1=O	> 100	> 100	> 100	> 100	> 100	84.1	57.7	89.6	68.9	81.9	65.3	88	75	54.9	56.1	–	–	–	–	–	viability, T/C (second compound 0.1 µM, first compound 0.000316 µM): 99.5%; viability, T/C (second compound 0.1 µM, first compound 0.001 µM): 92.5%; viability, T/C (second compound 0.1 µM, first compound 0.00316 µM): 95.3%; viability, T/C (second compound 0.1 µM, first compound 0.01 µM): 87.2%; viability, T/C (second compound 0.316 µM, first compound 0.000316 µM): 87.4%; viability, T/C (second compound 0.316 µM, first compound 0.001 µM): 94.6%; viability, T/C (second compound 0.316 µM, first compound 0.00316 µM): 89%; viability, T/C (second compound 0.316 µM, first compound 0.01 µM): 99.5%; viability, T/C (second compound 1 µM, first compound 0.000316 µM): 93%; viability, T/C (second compound 1 µM, first compound 0.001 µM): 90%; viability, T/C (second compound 1 µM, first compound 0.00316 µM): 89.3%; viability, T/C (second compound 1 µM, first compound 0.01 µM): 88.8%; viability, T/C (second compound 3.16 µM, first compound 0.000316 µM): 81.3%; viability, T/C (second compound 3.16 µM, first compound 0.001 µM): 82.3%; viability, T/C (second compound 3.16 µM, first compound 0.00316 µM): 84.6%; viability, T/C (second compound 3.16 µM, first compound 0.01 µM): 99.6%; viability, T/C (second compound 10 µM, first compound 0.000316 µM): 81.5%; viability, T/C (second compound 10 µM, first compound 0.001 µM): 80.1%; viability, T/C (second compound 10 µM, first compound 0.00316 µM): 81.9%; viability, T/C (second compound 10 µM, first compound 0.01 µM): 68.6%
COc1cc(C2c3cc4c(cc3C(OC3OC5COC(C)OC5C(O)C3O)C3COC(=O)C23)OCO4)cc(OC)c1O (stereo not given) + CC(CO)NC(=O)c1cc(-c2ccc(Cl)cc2)nn(-c2cnn(C)c2)c1=O	> 10000	> 10000	> 10000	> 10000	> 10000	102	88.7	93.6	97.5	91	94	99.2	95.5	92.7	95.5	93.6	90.1	98.2	77.7	96.6	viability, T/C [16]: 88.9%; viability, T/C [17]: 83.7%; viability, T/C [18]: 76.5%; viability, T/C [19]: 94.2%; viability, T/C [20]: 98.4%; viability, T/C [21]: 81.4%; viability, T/C [22]: 72.8%; viability, T/C [23]: 75.2%; viability, T/C [24]: 93.5%; viability, T/C [25]: 91.5%; viability, T/C [26]: 83.9%; viability, T/C [27]: 81.8%; viability, T/C [28]: 77.6%; viability, T/C [29]: 67.4%; viability, T/C [30]: 57.3%
Nc1ccn(C2OC(CO)C(O)C2(F)F)c(=O)n1 (stereo not given) + CC(CO)NC(=O)c1cc(-c2ccc(Cl)cc2)nn(-c2cnn(C)c2)c1=O	136	113	149	202	130	58.7	58.9	50	54	61	57.8	65	69.7	60.6	54.1	18.6	30.1	24.2	29.7	33.6	viability, T/C [16]: 35%; viability, T/C [17]: 29.3%; viability, T/C [18]: 35.9%; viability, T/C [19]: 35.3%; viability, T/C [20]: 37.7%; viability, T/C [21]: 28.4%; viability, T/C [22]: 36.1%; viability, T/C [23]: 38.9%; viability, T/C [24]: 31.4%; viability, T/C [25]: 37.9%; viability, T/C [26]: 42.4%; viability, T/C [27]: 32.1%; viability, T/C [28]: 31.3%; viability, T/C [29]: 51.9%; viability, T/C [30]: 30.1%
